This note sets out measurements from US12617777B2, “GPR84 antagonists and uses thereof” (Liminal BioSciences Limited, priority 2021, dated 2026).

The assay deals with T1, human GPR84 receptor (Homo sapiens, UniProt Q9NQS5).
T1 construct: host or cells: HEK293, transient transfection
Briefly: Gαi biosensor BRET assay in HEK293 cells (antagonism of ZQ-16). Type of assay: cell-based. The following applies: for inhibition at 10 µM: HEK293, single concentration 10 μM (designated F); for IC50: HEK293 cells, antagonism of 200 nmol/L ZQ-16; for inhibition at 2 µM: HEK293, single concentration 2 μM (designated A); for inhibition at 25 µM: HEK293, single concentration 25 μM (designated I). The method, boiled down: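 HEK293 cells transiently expressing human GPR84, Gαi2-Rluc8, GFP10-Gγ2 and Gβ1, in Tyrode's buffer pH 7.5. Compounds preincubated 5 min at 37° C, then 200 nmol/L ZQ-16 for 5 min at room temperature; coelenterazine 400A 5 μmol/L. BRET2 acceptor/donor ratio, background- and vehicle-corrected net BRET.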
A general note: In BRET a luciferase serves as donor, and the signal depends on an acceptor being close.

The structures appear in SMILES notation.

T1 sequence (Q9NQS5 whole entry): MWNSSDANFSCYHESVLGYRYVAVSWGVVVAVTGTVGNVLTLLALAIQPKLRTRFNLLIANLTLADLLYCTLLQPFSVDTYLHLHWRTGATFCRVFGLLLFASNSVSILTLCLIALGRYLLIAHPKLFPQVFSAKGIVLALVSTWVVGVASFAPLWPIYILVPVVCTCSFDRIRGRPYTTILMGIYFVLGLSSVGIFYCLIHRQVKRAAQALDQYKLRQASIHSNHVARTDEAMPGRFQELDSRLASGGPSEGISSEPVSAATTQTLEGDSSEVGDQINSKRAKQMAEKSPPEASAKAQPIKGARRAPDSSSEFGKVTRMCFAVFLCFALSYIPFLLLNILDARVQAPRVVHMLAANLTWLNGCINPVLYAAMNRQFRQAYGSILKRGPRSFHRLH

`Cc1cc(C#CC2CC2)ccc1-c1cn(Cc2nccs2)nn1` [Compound I-314] showed an inhibition at 10 µM of 25 to 50%.
Take `Cc1cc(C#CC2CC2)ccc1-c1cn(CC2CC3(CC3)CO2)nn1` (stereo not shown) [Compound I-569]: the inhibition at 10 µM is greater than 75% and the IC50 fell in the range of 1000 to 3000 nM.
`Cc1cc(C#CCn2ccnn2)cnc1-c1cn(CC2CCCCO2)nn1` (stereo not shown) [Compound I-841, 5-(3-(1H-1,2,3-triazol-1-yl)prop-1-yn-1-yl)-3-methyl-2-(1-((tetrahydro-2H-pyran-2-yl)methyl)-1H-1,2,3-triazol-4-yl)pyridine] came in with an inhibition at 2 µM greater than 75%.
In turn, `Cc1cc(C#CCN2CCN(c3ccccc3)CC2)ccc1-c1cn(CC2CCCCO2)nn1` (stereo not shown) [Compound I-867] returned an IC50 of no more than 300 nM.
As to `CN(C)c1cc(N2CC(C)(CO)C2)c(F)cc1-c1cn(CC2OCC3(CCC3)O2)nn1` (stereo not shown) [Compound I-786], the inhibition at 10 µM is greater than 75% and the IC50 was in the range of 300 to 1000 nM.
`Cc1ccc(Cl)cc1N(C)c1cn(CC2OCC3(CC3)CO2)nn1` [Compound I-844]: the inhibition at 10 µM lay in the range of 50 to 75%.
Still for that read-out and setting: to `Cc1cc(C#CC2CC(F)(F)C2)cnc1-c1cn(CC2OCC(C)(C)CO2)nn1` [Compound I-653] belongs greater than 75%.
As for `Cc1cc(Cl)c(N2CC(C)(C)C2)cc1-c1cn(C[C@H]2CCCCO2)nn1` [Compound I-431], the inhibition at 10 µM is no more than 25%.
Consider `CC1(C)CN(CC#Cc2cnc(-c3cn(CC4OCC5(CC5)CO4)nn3)c(OC3CC3)c2)C1` [Compound I-794], for which the inhibition at 2 µM is greater than 75% and the IC50 is no more than 300 nM.
Consider `Cc1cc(N2CC(C)(CN(C)c3ccccn3)C2)ccc1-c1cn(CC2CCCCO2)nn1` (stereo not shown) [Compound I-675], for which the inhibition at 10 µM is greater than 75%.
`Cc1cc(C#CCn2cc(-c3ccc(N(C)C)cc3)nn2)cnc1-c1cn(CC2OCC(C)(C)CO2)nn1` [Compound I-668] showed an inhibition at 2 µM greater than 75% and an IC50 of no more than 300 nM.
As for `Cc1cc(N2CC3CCC2CN3Cc2ccccn2)ccc1-c1cn(CC2CCCCO2)nn1` (stereo not shown) [Compound I-550], the inhibition at 10 µM lay in the range of 50 to 75%.
Compound `Cc1nc(-c2ccc(C#CC3CC3)cc2)cn1CC1CCCCO1` (stereo not shown) [Compound I-336] returned an inhibition at 25 µM of no more than 25%.
In turn, `Cc1ccccc1-c1cn(CC#Cc2cnc(-c3cn(CC4CCCCO4)nn3)c(C)c2)nn1` (stereo not shown) [Compound I-734] had an inhibition at 10 µM greater than 75% and a half-maximal inhibitory concentration (IC50) of 300 to 1000 nM.
Turning to `Cc1ccc(C#CC2CC2)cc1N(C)c1cn(CC2OCC(C)(C)CO2)nn1` [Compound I-761, N-(5-(cyclopropylethynyl)-2-methylphenyl)-1-((5,5-dimethyl-1,3-dioxan-2-yl)methyl)-N-methyl-1H-1,2,3-triazol-4-amine], the IC50 lay within 300 to 1000 nM.
`CC(C)C#Cc1ccc(-c2cn(CC3CCCCO3)nn2)cc1` (stereo not shown) [Compound I-57] showed an inhibition at 25 µM of no more than 25%.
On the same count and under the same terms, to `Cc1nn(CC2CCCCO2)cc1-c1cccc(C#CC2CC2)c1` (stereo not shown) [Compound I-323] belongs no more than 25%.
For the compound `CC1(C)COC(Cn2cc(-c3ncc(C#CCOC4CC4)cc3OC3CC3)nn2)OC1` [Compound I-758], the inhibition at 2 µM is greater than 75% and the half-maximal inhibitory concentration (IC50) was no more than 300 nM.
Take `Cc1cc(N2CC(C(F)F)C2)ccc1-c1cn(CC2CCCCO2)nn1` (stereo not shown) [Compound I-520]: the inhibition at 10 µM was 50 to 75%.
For the compound `Cc1ccc(N2CC(C)(C)C2)cc1-c1cn(CC2CCCCO2)nn1` (stereo not shown) [Compound I-213], the inhibition at 10 µM is no more than 25%.
On the same count and under the same terms, to `Cc1cc(C#CCNc2ccncc2)ccc1-c1cn(CC2CCCCO2)nn1` (stereo not shown) [Compound I-122] belongs 25 to 50%.
`Cc1ccc(-c2ccc(-c3nnn(CC4CCCCO4)n3)cc2)cn1` (stereo not shown) [Compound I-2] yielded an inhibition at 25 µM of no more than 25%.
`Cc1cc(N2CCCC23CN(C)C3)ccc1-c1cn(CC2CCCCO2)nn1` (stereo not shown) [Compound I-151] showed an inhibition at 10 µM of no more than 25%.
In turn, `Cc1cc(C#CC2CC2)ccc1-c1cn(CC2CC(C)(C)O2)nn1` (stereo not shown) [Compound I-197] registered an inhibition at 10 µM of 50 to 75%.
The same measure, in the same setting: to `Cc1cc(C#CCNc2ccccc2)ccc1-c1cn(CCOc2cccnc2)nn1` [Compound I-136] belongs no more than 25%; to `Cc1cc(N2CCN(CC3CC4CCN3CC4)CC2)ccc1-c1cn(CC2CCCCO2)nn1` (stereo not shown) [Compound I-657], no more than 25%; to `Cc1cc(N2CCN(Cc3ccccn3)CC2)cnc1-c1cn(CC2OCC(C)(C)CO2)nn1` [Compound I-597], 50 to 75%.
In turn, `COC(c1cn(CC2CCCCO2)nn1)c1cc(C#CC2CC2)c(F)cc1C` (stereo not shown) [Compound I-688] came in with an inhibition at 10 µM greater than 75% and an IC50 of 300 to 1000 nM.
The compound `O=C(O)c1cnc(-c2cn(CC3OCC4(CC4)CO3)nn2)c(OC2CC2)c1` [Compound I-855] registered an inhibition at 2 µM greater than 75%.
`Cc1cc(C#CC2CC2)ccc1-c1cn(CC2CCC(=O)O2)nn1` (stereo not shown) [Compound I-539] gave an inhibition at 10 µM of no more than 25%.
The same measure, in the same setting: to `Cc1cc(C#CC2CC2)ccc1-c1cn(CC2CCCCN2)nn1` (stereo not shown) [Compound I-126] belongs no more than 25%.
Consider `C(#CC1CC1)c1ccc(-c2cn(CC3CCCCO3)nn2)cn1` (stereo not shown) [Compound I-35], for which the inhibition at 25 µM was no more than 25%.
For `CC1(C)CN(c2ccc(-c3cn(CC4CCCCO4)nn3)c(F)c2)C1` (stereo not shown) [Compound I-379], the inhibition at 10 µM is greater than 75%.
On the same count and under the same terms, to `COCC#Cc1cnc(-c2cn(CC3CCCCO3)nn2)c(C)c1` (stereo not shown) [Compound I-273] belongs 50 to 75%.
`Cc1ccc(C#CC2CC2)cc1C(OCC(F)(F)F)c1cn(CC2OCC(C)(C)CO2)nn1` (stereo not shown) [Compound I-617, 4-((5-(cyclopropylethynyl)-2-methylphenyl)(2,2,2-trifluoroethoxy)methyl)-1-((5,5-dimethyl-1,3-dioxan-2-yl)methyl)-1H-1,2,3-triazole] yielded an inhibition at 10 µM greater than 75% and an IC50 of no more than 300 nM.
`CCc1cc(C#CCOC)ccc1-c1cn(CC2OCC(C)(C)CO2)nn1` [Compound I-770] returned an IC50 of no more than 300 nM.
`Cc1cc(C#CC2CC2)ccc1-c1cn(CC2CN(C)CCO2)nn1` (stereo not shown) [Compound I-181] yielded an inhibition at 10 µM of no more than 25%.
On the same count and under the same terms, to `Cc1cc(N2CC3(CCN(Cc4ccccc4)C3)C2)ccc1-c1cn(CC2CCCCO2)nn1` (stereo not shown) [Compound I-169] belongs no more than 25%; to `COC1CCCN(c2ccc(-c3cn(CC4CCCCO4)nn3)c(C)c2)C1` (stereo not shown) [Compound I-428], 25 to 50%; to `CN(C)c1cc(C#N)ccc1-c1cn(CC2OCC(C)(C)CO2)nn1` [Compound I-733, 4-(1-((5,5-dimethyl-1,3-dioxan-2-yl)methyl)-1H-1,2,3-triazol-4-yl)-3-(dimethylamino)benzonitrile], 50 to 75%.
Turning to `Cc1cc(N2CC(C)(C)C2)c(C)cc1-c1cn(CC2OCC(C)(C)CO2)nn1` [Compound I-685], the inhibition at 10 µM is greater than 75% and the IC50 was 1000 to 3000 nM.
Regarding `Cc1cc(N2CC(C)(C)C2)ccc1-c1cn(CC2OCC(C)(C)CO2)nn1` [Compound I-665], the inhibition at 10 µM was greater than 75% and the IC50 was no more than 300 nM.
`CC(C)Oc1cc(N2CC(C)(CO)C2)ccc1-c1cn(CC2CC(C)(C)O2)nn1` (stereo not shown) [Compound I-677]: the inhibition at 2 µM is greater than 75% and the IC50 is no more than 300 nM.
As for `Cc1cc(N2CC(C)(C)C2)cnc1-c1cn(CC2OCC(C)(C)CO2)nn1` [Compound I-584], the inhibition at 10 µM is greater than 75%.
Compound `C(#CC1CC1)c1cccc(-c2cnn(CC3CCCCO3)c2)c1` (stereo not shown) [Compound I-320] yielded an inhibition at 25 µM of no more than 25%.
The compound `Cc1cc(C#CCNc2ccccc2)cnc1-c1cn(C[C@H]2CCCCO2)nn1` [Compound I-394] gave an inhibition at 10 µM greater than 75%.
Same read-out and setting: to `Cc1ccc(C#CC2CC2)nc1-c1cn(CC2CCCCO2)nn1` (stereo not shown) [Compound I-479] belongs no more than 25%.
In turn, `CC1(C)COC(Cn2cc(-c3ncc(C#CCNCc4ccccn4)cc3OC3CC3)nn2)OC1` [Compound I-772] came in with an IC50 of no more than 300 nM.
`Cc1cc(N2CCN(Cc3ccn(C)n3)CC2)ccc1-c1cn(CC2CCCCO2)nn1` (stereo not shown) [Compound I-582] had an inhibition at 10 µM greater than 75%.
Still for that read-out and setting: to `Cc1cc(N2CC(CO)C2)ccc1-c1cn(CC2CCCCO2)nn1` (stereo not shown) [Compound I-471] belongs greater than 75%.
`Cc1cc(N2CC(C)(CNc3ccccn3)C2)ccc1-c1cn(CC2OCC(C)(C)CO2)nn1` [Compound I-673] came in with an inhibition at 2 µM greater than 75% and an IC50 of no more than 300 nM.
On to `Cc1c(-c2cccc(C#CC3CC3)c2)cnn1CC1CCCCO1` (stereo not shown) [Compound I-322], for which the inhibition at 25 µM is no more than 25%.
`CC1(C)COC(Cn2cc(-c3ncc(C#CCO)cc3OC3CC3)nn2)OC1` [Compound I-771] had an IC50 of no more than 300 nM.
Take `COCc1cc(C#CC2CC2)ccc1-c1cn(CC2CCCCO2)nn1` (stereo not shown) [Compound I-206]: the inhibition at 10 µM fell in the range of 50 to 75%.
In turn, `Cc1cc(C#CC2CC(F)(F)C2)ccc1-c1cn(CC2CCCCO2)nn1` (stereo not shown) [Compound I-640] came in with an inhibition at 10 µM greater than 75%.
`Cc1cc(C#CC2CC2)ccc1-c1cn(CC2CC(C)(C)CO2)nn1` (stereo not shown) [Compound I-226] displayed an inhibition at 10 µM greater than 75% and an IC50 of 1000 to 3000 nM.
For the compound `CC1(C)COC(Cn2cc(-c3ncc(N4CC(C)(CO)C4)cc3Cl)nn2)OC1` [Compound I-765], the IC50 lay in the range of 1000 to 3000 nM.
On to `Cc1cc(N2CC3(COC3)C2)ccc1-c1cn(CC2CCCCO2)nn1` (stereo not shown) [Compound I-113], for which the inhibition at 10 µM lay in the range of 25 to 50%.
Take `COc1cc(C#CC2CC2)ccc1-c1cn(CC2CCCCO2)nn1` (stereo not shown) [Compound I-82]: the inhibition at 10 µM was in the range of 25 to 50% and the IC50 was greater than 3000 nM.
The matching figures for `CCOC(c1cn(CC2CCCCO2)nn1)c1cc(C#CC2CC2)ccc1C` (stereo not shown) [Compound I-594]: greater than 75% and no more than 300 nM.
In the case of `CC1(C)CN(c2ccc(-c3cn(CC4CCCCO4)nn3)c(C(F)(F)F)c2)C1` (stereo not shown) [Compound I-255], the inhibition at 10 µM was in the range of 25 to 50%.

As usually defined, the inhibition is the share of the control response that was lost under treatment. A word on the IC50: it is the concentration that inhibits the measured activity by half.
